Experimental data as given in patent US4883808A, “Condensation products of cyclic diketones and ascorbic acid as immunomodulatory agents” (American Biotechnology Company, priority 1988, dated 1989).

Columns and labels:
[1] = tested on: adenovirus type 2; test: antiviral test of Sidewell and Huffman, adenovirus type 2 in HEp-2 cells; format: cell-based; conditions: HEp-2 target cell
Experimental: The virus rating (VR) of Compound A of this invention when tested in accordance with the method of Sidewell and Huffman (Appl. Microbiol. 22:795-801, 1971) against adenovirus type 2 utilizing HEp-2 as the target cell was greater than 0.2. […] The minimum toxic concentration (MTC) was greater than 320 μg/ml.

[2] = tested on: feline leukemia virus; test: antiviral test of Sidewell and Huffman, feline leukemia virus in 81C cells; format: cell-based, feline leukemia virus (81C feline kidney cell); conditions: 81C cell line
Experimental: The virus rating (VR) of Compound A of this invention when tested in accordance with the method of […] and Huffman (Appl. Microbiol. 22:795-801, 1971) against adenovirus type 2 utilizing HEp-2 as the target cell was greater than 0.2. […] The minimum toxic concentration (MTC) was greater than 320 μg/ml. The same compound was also tested against feline leukemia virus by the […] and Huffman procedure using the […] cell line as the target. The […] cell is a feline kidney cell transformed with a murine leukemia virus (ras gene +) with the following results. The therapeutic index of the compound which is a measure of the compounds ability to protect the cell against the virus without adversely affecting cell growth was 22.

[3] = tested on: T- and B-lymphocytes isolated from mouse spleens; test: lymphocyte blastogenesis assay (mouse spleen lymphocytes, C-14 methyl thymidine uptake); format: cell-based; parameters: LPS 5.0 (lymphocyte blastogenesis) / RPMI (lymphocyte blastogenesis): unit not given here; conditions: for LPS 5.0 (lymphocyte blastogenesis) / % CHANGE (LPS): LPS 5.0 MG/KG; for % CHANGE (LPS) / % CHANGE (PHA): vs 0 mg/kg; for PHA 10.0 (lymphocyte blastogenesis) / % CHANGE (PHA): PHA 10.0 UG/KG; for RPMI (lymphocyte blastogenesis): media, no mitogen
Source text: One of these tests is the lymphocyte blastogenesis assay which measures the ability of the compound under test to affect DNA synthesis and mitosis of T- and B- lymphocytes isolated from mouse spleens.
Mitogens are substances which stimulate DNA synthesis and mitosis. The mitogens used in these studies were phytohemaglutinin (PHA) which is isolated from the red kidney bean and a lipopolysacharide isolated from Salmonella tythimurium (LPS).
The lymphocyte blastogenesis test is a method to assess the ability of immunocompetent T- or B-cells to respond to mitogens or a specific antigen. It may be performed on lymphocytes obtained from mice treated with immunostimulators in vivo or the entire assay can be performed in vitro. The assay as described below uses minimal doses of polyclonal mitogens to induce blastogenesis (proliferation measured by DNA synthesis), in order to be able to assess the phenomena of amplification.
The lymphocyte blastogenesis test is carried out as follows:
1. Sacrifice two mice/experimental group by cervical dislocation.
2. Immerse mice in a mild disinfectant solution (Povadyne).
3. Remove spleens and place in a sterile 6 well plate containing 5 ml/well of RPMI-1640.
4. Make a single cell suspension by mincing spleens with a sterile toothed forcep.
5. Place cell suspension in a sterile centrifuge tube and allow large clumps to settle for 10 minutes.
6. Remove single cell suspension by pipetting supernatant into another sterile centrifuge tube.
7. Centrifuge cell suspension for 10 mins. at 1100 RPM in GLC-2B.
8. Aseptically remove supernatant and discard.
9. Resuspend cell button in 5 mls of RPMI-1640, and centrifuge. Wash cells in this manner two more times.
10. Resuspend cells in 5 mls of RPMI-1640 containing 10-15% Human AB heat-inactivated (Pel-Freeze, Rogers, AR or BioBee, Boston, MA).
11. Perform viable cell count using 0.25% trypan blue exclusion dye made in physiological isotonic saline. Non-viable cells stain blue.
12. Adjust viable cell concentration to […] in RPMI-1640 containing human AB sera.
13. Aliquot in sextuplicate wells of a 96 well sterile round bottom tissue culture plate with 0.1 ml/well of the various cell suspensions to be tested.
14. Add to above replicate sextuplicate cells selected quantities of mitogen.
15. Include in the experiment a control plate which contains the same cell groups as above, but receive a 0.1 ml of media instead of mitogen.
16. Humidify plate by filling outside wells of plate with media.
17. Incubate plates at […] with 5% CO-2 for 48 hours.
18. After 48 hours all wells receive 0.025 mls of a 0.4 microcurie/ml solution of C-14 methyl thymidine and incubate at 37 C, 5% CO-2 for 18 hours.
19. The cells are harvested using a Brandel M-12 Cell Harvestor (Brandel, Rockfille, MD) onto filter paper discs using phosphate buffered saline at physiological osmolarity. (285-320 mos).
20. The filter paper disks are placed into Packard mini-scintillation vials and allowed to dry for 18 hours.
21. Once dried, the vials are filled with 2 mls of a scintillation cocktail containing 4 liters of scintillation grade toluene, 16.0 g of 2,5-diphenyloxazole (PPO) and 0.4 g of 1,4-Bis (2-(5-Phenyloxazoly) benzene (POPOP).
22. The vials are counted in a LKB 1212 Rackbeta (LKB Instruments, Gaithersburg, MD) Liquid scintillation counter for two minutes/vial.

<3,3'>-hemiketal-<3,6>-ketal of 2-(1',3'-diketo-4'-cyclopentyl)-2-hydroxy-3-keto-4-dihydroxyethylbutyrolactone [Compound A]
minimum toxic concentration (MTC) [1]: greater than 320 μg/ml
ID50 (concentration that causes 50% reduction in virus replication) ([1]; adenovirus type 2): 505.19 µg/mL
virus rating (VR) ([1]; adenovirus type 2): greater than 0.2
MTC (minimum toxic concentration) [2]: 100
ID50 (concentration in μg./ml that causes 50% reduction in virus replication) ([2]; feline leukemia virus): 4.5 µg/mL
VR (virus rating) ([2]; feline leukemia virus, control 0.98): 1.1

<3,4'>-hemiketal-<3,6>-ketal of 2-(1',4'-diketo-3'-cyclohexyl)-2-hydroxy-3-keto-4-dihydroxyethylbutyrolactone [Compound B]
LPS 5.0 (lymphocyte blastogenesis) ([3]; 12.5 mg/kg): 7195 ± 90
% CHANGE (LPS) ([3]; 12.5 mg/kg): +2.2%
PHA 10.0 (lymphocyte blastogenesis) ([3]; 12.5 mg/kg): 7126 ± 1104
% CHANGE (PHA) ([3]; 12.5 mg/kg): -3.8%
RPMI (lymphocyte blastogenesis) ([3]; 12.5 mg/kg): 605 ± 117
LPS 5.0 (lymphocyte blastogenesis) ([3]; 25 mg/kg): 8580 ± 507
% CHANGE (LPS) ([3]; 25 mg/kg): +21.9%
PHA 10.0 (lymphocyte blastogenesis) ([3]; 25 mg/kg): 7563 ± 2053
% CHANGE (PHA) ([3]; 25 mg/kg): +2.1%
RPMI (lymphocyte blastogenesis) ([3]; 25 mg/kg): 1392 ± 247
LPS 5.0 (lymphocyte blastogenesis) ([3]; 50 mg/kg): 6823 ± 1305
PHA 10.0 (lymphocyte blastogenesis) ([3]; 50 mg/kg): 10218 ± 2630
% CHANGE (PHA) ([3]; 50 mg/kg): +37.9%
RPMI (lymphocyte blastogenesis) ([3]; 50 mg/kg): 1041 ± 687
LPS 5.0 (lymphocyte blastogenesis) ([3]; 100 mg/kg): 8423 ± 351
% CHANGE (LPS) ([3]; 100 mg/kg): +19.6%
PHA 10.0 (lymphocyte blastogenesis) ([3]; 100 mg/kg): 9258 ± 1391
% CHANGE (PHA) ([3]; 100 mg/kg): +24.9%
RPMI (lymphocyte blastogenesis) ([3]; 100 mg/kg): 705 ± 314
LPS 5.0 (lymphocyte blastogenesis) ([3]; 200 mg/kg): 8025 ± 1670
% CHANGE (LPS) ([3]; 200 mg/kg): +14%
PHA 10.0 (lymphocyte blastogenesis) ([3]; 200 mg/kg): 8111 ± 896
% CHANGE (PHA) ([3]; 200 mg/kg): +9.4%
RPMI (lymphocyte blastogenesis) ([3]; 200 mg/kg): 660 ± 354
